Measured values: the NIST ThermoML archive (doi:10.1016/j.jct.2016.03.021)

Assay: wn = mass fraction of the nth substance listed
Conditions: Liquid; for mass density: Vibrating tube method

CN(CCO)CCO [N-methyldiethanolamine] + O
viscosity [mPa·s]
Conditions	w1 = 0.1	w1 = 0.2	w1 = 0.2002	w1 = 0.3	w1 = 0.4
293.15 K, 93 kPa, Concentric cylinders viscometry	1.463	2.293	–	3.942	–
293.15 K, 100 kPa, Falling or rolling sphere viscometry	1.476	2.35	2.35	3.999	–
293.15 K, 5000 kPa, Falling or rolling sphere viscometry	1.475	–	2.353	4.018	–
293.15 K, 10000 kPa, Falling or rolling sphere viscometry	1.475	–	2.357	4.038	–
293.15 K, 20000 kPa, Falling or rolling sphere viscometry	1.471	–	2.364	4.077	–
293.15 K, 30000 kPa, Falling or rolling sphere viscometry	1.472	–	2.372	4.114	–
293.15 K, 40000 kPa, Falling or rolling sphere viscometry	1.47	–	2.38	4.153	–
293.15 K, 60000 kPa, Falling or rolling sphere viscometry	1.474	–	2.399	4.231	–
293.15 K, 80000 kPa, Falling or rolling sphere viscometry	1.477	–	2.419	4.311	–
293.15 K, 100000 kPa, Falling or rolling sphere viscometry	1.485	–	2.437	4.39	–
293.15 K, 120000 kPa, Falling or rolling sphere viscometry	1.492	–	2.464	4.478	–
313.15 K, 93 kPa, Concentric cylinders viscometry	0.9079	1.342	–	2.094	3.145
313.15 K, 100 kPa, Falling or rolling sphere viscometry	0.912	1.345	1.345	2.095	3.238
313.15 K, 5000 kPa, Falling or rolling sphere viscometry	0.914	–	1.347	2.106	3.27
313.15 K, 10000 kPa, Falling or rolling sphere viscometry	0.915	–	1.349	2.118	3.302
313.15 K, 20000 kPa, Falling or rolling sphere viscometry	0.92	–	1.358	2.144	3.365
313.15 K, 30000 kPa, Falling or rolling sphere viscometry	0.923	–	1.367	2.168	3.428
313.15 K, 40000 kPa, Falling or rolling sphere viscometry	0.927	–	1.377	2.192	3.491
313.15 K, 60000 kPa, Falling or rolling sphere viscometry	0.936	–	1.398	2.244	3.618
313.15 K, 80000 kPa, Falling or rolling sphere viscometry	0.945	–	1.418	2.296	3.74
313.15 K, 100000 kPa, Falling or rolling sphere viscometry	0.955	–	1.445	2.356	3.866
313.15 K, 120000 kPa, Falling or rolling sphere viscometry	0.964	–	1.466	2.412	3.996
333.15 K, 93 kPa, Concentric cylinders viscometry	0.6344	0.8719	–	1.276	1.82
333.15 K, 100 kPa, Falling or rolling sphere viscometry	0.624	0.872	0.872	1.271	1.843
333.15 K, 5000 kPa, Falling or rolling sphere viscometry	0.627	–	0.876	1.278	1.861
333.15 K, 10000 kPa, Falling or rolling sphere viscometry	0.63	–	0.881	1.286	1.88
333.15 K, 20000 kPa, Falling or rolling sphere viscometry	0.634	–	0.89	1.302	1.921
333.15 K, 30000 kPa, Falling or rolling sphere viscometry	0.638	–	0.898	1.316	1.956
333.15 K, 40000 kPa, Falling or rolling sphere viscometry	0.643	–	0.907	1.332	1.992
333.15 K, 60000 kPa, Falling or rolling sphere viscometry	0.652	–	0.924	1.367	2.063

mass density [kg/m3]
Conditions	w1 = 0.1	w1 = 0.2002	w1 = 0.3	w1 = 0.4
293.15 K, 100 kPa	1007	1016.5	1026.7	1036.6
293.15 K, 500 kPa	1007.2	1016.6	1026.9	1036.8
293.15 K, 1000 kPa	1007.4	1016.8	1027.1	1036.9
293.15 K, 2000 kPa	1007.8	1017.2	1027.4	1037.3
293.15 K, 5000 kPa	1009	1018.4	1028.6	1038.3
293.15 K, 10000 kPa	1011.1	1020.3	1030.4	1040.1
293.15 K, 15000 kPa	1013.2	1022.2	1032.2	1041.9
293.15 K, 20000 kPa	1015.3	1024.2	1034.1	1043.6
293.15 K, 30000 kPa	1019.4	1028	1037.7	1047.1
293.15 K, 40000 kPa	1023.4	1031.8	1041.2	1050.4
293.15 K, 50000 kPa	1027.3	1035.4	1044.6	1053.8
293.15 K, 60000 kPa	1031.1	1039	1048	1057.1
293.15 K, 70000 kPa	1035	1042.6	1051.4	1060.3
293.15 K, 80000 kPa	1038.5	1045.9	1054.6	1063.3
293.15 K, 90000 kPa	1042.2	1049.4	1057.9	1066.4
293.15 K, 100000 kPa	1045.7	1052.8	1061.1	1069.5
293.15 K, 110000 kPa	1049.2	1056	1064.1	1072.4
293.15 K, 120000 kPa	1052.7	1059.3	1067.2	1075.4
293.15 K, 130000 kPa	1056.1	1062.6	1070.3	1078.4
293.15 K, 140000 kPa	1059.5	1065.6	1073.2	1081.1
313.15 K, 100 kPa	1000.2	1008.5	1017.2	1025.5
313.15 K, 500 kPa	1000.4	1008.6	1017.4	1025.6
313.15 K, 1000 kPa	1000.6	1008.8	1017.5	1025.8
313.15 K, 2000 kPa	1001	1009.2	1017.9	1026.2
313.15 K, 5000 kPa	1002.2	1010.4	1019.1	1027.3
313.15 K, 10000 kPa	1004.3	1012.3	1020.9	1029.2
313.15 K, 15000 kPa	1006.3	1014.2	1022.8	1031
313.15 K, 20000 kPa	1008.2	1016.1	1024.6	1032.8
313.15 K, 30000 kPa	1012.3	1019.9	1028.4	1036.3
313.15 K, 40000 kPa	1016.2	1023.7	1032	1040
313.15 K, 50000 kPa	1019.9	1027.3	1035.5	1043.2
313.15 K, 60000 kPa	1023.8	1031	1039	1046.6
313.15 K, 70000 kPa	1027.4	1034.4	1042.3	1050
313.15 K, 80000 kPa	1031	1037.9	1045.5	1053.1
313.15 K, 90000 kPa	1034.5	1041.2	1048.7	1056.2
313.15 K, 100000 kPa	1038.2	1044.7	1052	1059.5
313.15 K, 110000 kPa	1041.5	1047.9	1055.2	1062.5
313.15 K, 120000 kPa	1044.9	1051.1	1058.3	1065.5
313.15 K, 130000 kPa	1048.1	1054.3	1061.3	1068.4
313.15 K, 140000 kPa	1051.4	1057.4	1064.5	1071.4
333.15 K, 100 kPa	990.5	997.8	1005.4	1012.4
333.15 K, 500 kPa	990.6	998	1005.6	1012.7
333.15 K, 1000 kPa	990.8	998.2	1005.7	1012.8
333.15 K, 2000 kPa	991.3	998.6	1006.2	1013.2
333.15 K, 5000 kPa	992.5	999.8	1007.3	1014.4
333.15 K, 10000 kPa	994.6	1001.8	1009.3	1016.4
333.15 K, 15000 kPa	996.6	1003.8	1011.3	1018.4
333.15 K, 20000 kPa	998.6	1005.7	1013.2	1020.3
333.15 K, 30000 kPa	1002.6	1009.7	1017	1024.1
333.15 K, 40000 kPa	1006.7	1013.6	1020.9	1027.9
333.15 K, 50000 kPa	1010.4	1017.2	1024.3	1031.4
333.15 K, 60000 kPa	1014.2	1020.9	1027.9	–
